Like-named read-outs stand apart in the source and are kept apart here.
Tests used:
[1] = RP-LC chromatographic lipophilicity (logkw); type: physicochemical; details: chromatographic lipophilicity from gradient RP-LC, Luna RP-C18, water/acetonitrile with 0.1% formic acid, 30 °C
CA IX = CA IX (Homo sapiens, UniProt Q16790); assay: Stopped-flow CA-catalysed CO2 hydration inhibition assay; type: biochemical; details: for Ki: sulphonamides with IDs C...

**Q.** With `Cc1cc(S(=O)(=O)NC(=N)NCc2ccc(S(N)(=O)=O)cc2)c(SCc2ccccc2)cc1Cl` [C98] as the molecule, how does the logkw [1] read?
**A.** The logkw was 3.920.

**Q.** And the “logKi(CA IX)” value (CA IX; logarithm of Ki (Ki in nM), mean of three determinations)?
**A.** The value was 1.130.

**Q.** What about the Ki (CA IX; read-out: Ki) of the same molecule?
**A.** Its Ki is 23.1 nM.

**Q.** And the Ki (CA IX; read-out: pKi (exp.) (converted))?
**A.** The Ki was 23.1 nM.
